According to PMC7756582, “Prodrugs of γ‐Alkyl‐Modified Nucleoside Triphosphates: Improved Inhibition of HIV Reverse Transcriptase” (Angewandte Chemie (International Ed. in English), 2020):

Key:
[1] = Chemical hydrolysis in aqueous phosphate buffer (PBS, pH 7.3); assay type: physicochemical; details: phosphate buffered saline (PBS); aqueous 25 mM phosphate buffer, pH 7.3, 37 °C; removal of AB group; n.h. = no hydrolysis observed through cleavage of AB-mask; read-out: PBS pH 7.3 t 1/2 (converted)
Protocol: γ‐(AB,alkyl)‐NTP prodrugs 6 and γ‐alkyl‐NTPs 7 were incubated in aqueous phosphate buffer (PBS, 25 mM, pH 7.3), or were exposed to pig liver esterase (PLE) in phosphate buffer (PBS) and to human CD4^+ T‐lymphocyte cell extracts to study their stability and the product distribution. The hydrolysis mixtures were analyzed by means of analytical rp‐18‐HPLC. The calculated half‐lives of prodrugs 6 (Table 1, t 1/2) reflect the removal of the bioreversible AB group to yield γ‐alkyl‐NTPs 7. Possible hydrolysis pathways and products are summarized in Scheme 4.
As hydrolysis products, a predominant formation of γ‐alkyl‐d4TTPs 7 and a very small amount of d4TDP […] was detected (approximately 3 %). After consumption of the starting material, no further increase of d4TDP concentration was observed. This supports the hypothesis that only the double‐γ‐esterified d4TTP prodrugs 6 were prone to a bond breakage between the γ‐ and β‐phosphate. […] In contrast to previous studies with TriPPPro‐NTPs 5 containing a second cleavable mask (first generation NTP prodrugs),[ ^23 , ^24 , ^25 ] no d4TTP was detected in these studies using 6 or 7. A side reaction occurred during the studies using compounds 7 that led to the formation of thymine by the cleavage of the glycosidic bond as reported before.[ ^19 , ^22 ]
(§1) ProLab 300 from Schott Co.. Thermomixer: Eppendorf Thermomixer 5436 and CellMedia Thermoschüttler basic were used. […]
Chemical hydrolysis of prodrugs of γ-(AB,alkyl) d4TTP 6 as well as the γ-alkyl-NTPs 7,15:
Stock solutions (50mM in DMSO-d6) of compounds 6,7 were prepared. After dilution of 11 µL stock solution with 100 µL milliQ water and 189 µL DMSO-d6 to 1.9mM hydrolysis solutions the reaction was started by addition of 300 µL phosphate buffer saline (PBS, 50mM, pH 7.3). The solution was incubated at 37 C in a thermomixer. An initial aliquot (25 µL) was taken directly and analyzed by analytical HPLC at 265-266 nm. Further aliquots were taken for monitoring the kinetic hydrolysis. The exponential decay curves (pseudo-first order) based on absolute integral values were calculated with commercially available software (OriginPro 9.0G) and yielded the half-lives t1/2 of the prodrugs via one determination. […]
The calculation of t1/2 was performed analogously to that for the chemical hydrolysis studies.
(§2) Preparation of cell extracts: Human CD4+ T-lymphocyte CEM cells were grown in RPMI-1640-based cell culture medium to a final density of ~3·10^6 cells/ml. Then, cells were centrifuged for 10 min at 1,250 rpm at 4 °C, washed twice with cold PBS, and the pellet was re-suspended at 10^8 cells/ml and sonicated (Hielscher Ultrasound Techn., 100% amplitude, 3·times for 10 sec) to destroy cell integrity. The resulting cell suspension was then centrifuged at 10,000 rpm to remove cell debris, and the supernatant divided in aliquots before being frozen at -80 C and used.
(1 picture or pasted object on this page, not shown here)

[2] = Enzyme-catalyzed hydrolysis in human CD4+ T-lymphocyte CEM cell extracts; assay type: in vitro ADME; details: CEM/0 cell extracts (CD4+ T-lymphocytes); human CD4+ T-lymphocyte CEM cell extracts, 37 °C; read-out: CEM/0 cell extracts t 1/2 (converted)
Protocol: The stability of prodrugs 6 and the γ‐alkyl‐NTPs 7 was further investigated in human CD4 ^+ T‐lymphocyte CEM cell extracts. […] Thus, an enzymatic cleavage reaction took place. Half‐lives as low as 0.4 h (6 az) to 5.2 h (6 dz) were determined. […] This is in accordance to our previous results for the DiPPro‐[ ^17 , ^18 ] or the TriPPPro‐compounds 5.[ ^22 , ^23 ] In all cases we observed the predominant formation of γ‐alkyl‐d4TTPs 7 and d4TDP 2 d in very low concentration (Figure 2 B) but no NTP formation was detected, in contrast to the studies using the previously described TriPPPro compounds 5.[ ^23 , ^24 ] However, the difference to the compounds bearing long lipophilic acyl groups was not very pronounced (2‐ to 3‐fold). In the case of γ‐(AB‐C4,alkyl‐C18)‐d4TTP 6 cz, γ‐C18‐d4TTP 7 z was detected as the main product. After 8 h incubation, the ratio of γ‐C18‐d4TTP 7 z and d4TDP 2 d was 5:1. This was in sharp contrast to the studies performed with TriPPPro compounds 5.[ ^23 , ^24 ] There, it was almost impossible to detect significant concentrations of d4TTP due to its fast dephosphorylation to form first d4TDP and finally d4TMP 2 m. […] The formation of thymine or d4TTP 2 t from γ‐C18‐d4TTP 7 z was not detected (Supporting Information, Figure SI2).
as §1
Enzyme-catalyzed hydrolysis of γ-(AB,alkyl)-d4TTPs 6, γ-alkyl-d4TTPs 7,15 and TriPPPros 5 in CEM cell extracts:
18 µL of the appropriate 50 mM DMSO-d6 stock solution was diluted to 6.0 mM hydrolysis solution by addition of 132.0 µL DMSO-d6.
7-10 different samples including 10 µL water and 10 µL hydrolysis solution were prepared in 2 mL Eppendorf® vials. The reaction was started by addition of 50 µL human CEM cell extract and the mixture was incubated at 37 °C for different time periods. The reactions were stopped by addition of 150 μL MeOH. The solution was kept on ice for 5 min followed by centrifugation for 5 min (13000 rpm).
The supernatants were filtered (Chromafil® RC-20/15 MS, 0.2 μm) and stored in liquid nitrogen. When testing, the samples were defrosted and injection volume with 80 μL was used for HPLC analysis. The calculation of t1/2 was performed analogously to that for the chemical hydrolysis studies.
as §2

HIV-1(IIIB) = experiment: Anti-HIV activity assay, HIV-1-infected wild-type CEM/0 cell cultures; assay type: cell-based; details: Human immunodeficiency virus 1, IIIB, CCRF-CEM; wild-type CEM/0 cells, HIV-1; mean±SD, n=2-3; read-out: EC50 CEM/0 HIV-1
Protocol: (§3) γ‐(AB,alkyl)‐d4TTP prodrugs 6 and the γ‐alkyl‐d4TTPs 7 were evaluated for their ability to inhibit the replication of HIV in HIV‐1‐ or HIV‐2‐infected wild‐type CEM/0 as well as mutant thymidine‐kinase‐deficient CEM cell cultures (CEM/TK^−). For comparison, two TriPPPro derivatives 5 were also included in this assay.
(§4) Anti-HIV activity assay: Inhibition of HIV-1(IIIB)- and HIV-2(ROD)-induced cytopathicity in wild-type CEM/0 and thymidine kinase-deficient CEM/TK- cell cultures was measured in microtiter 96-well plates containing ~3·105 CEM cells/mL infected with 100 CCID50 of HIV per milliliter and containing appropriate dilutions of the test compounds. After 4−5 days of incubation at 37 °C in a CO2-controlled humidified atmosphere, CEM giant (syncytium) cell formation was examined microscopically. […]
(§5) was defined as the compound concentration required to inhibit HIV-induced giant cell formation by 50%. […]
(§6) The result was visualized by fluorescence imaging. […]
as §6

HIV-2(ROD) [3] = experiment: Anti-HIV activity assay, HIV-2-infected wild-type CEM/0 cell cultures; assay type: cell-based; details: Human immunodeficiency virus 2, CCRF-CEM, read-out: EC50 CEM/0 HIV-2
Protocol: as §3, §4, §5, §6, §6

HIV-2(ROD) [4] = experiment: Anti-HIV activity assay, HIV-2-infected thymidine-kinase-deficient CEM/TK- cell cultures; assay type: cell-based; details: for antiviral activity in CEM/TK− cell cultures (in words): HIV-2-infected CEM/TK− cells; for EC50: read-out: EC50 CEM/TK− HIV-2
Protocol: as §3, §4, §5, §6, §6

[5] = Cytotoxicity: inhibition of CD4+ T-cell (CEM) proliferation; assay type: cell-based; details: human, CEM/0 cells (CD4+ T-cells), 50 % cytostatic concentration, mean±SD, n=2-3
[6] = wild-type CEM/0 cells, HIV-2, mean±SD, n=2-3
[7] = Human immunodeficiency virus 2, thymidine-kinase-deficient CEM/TK− cells, HIV-2, mean±SD, n=2-3

Compound | half-life at 0.92 mM [1] [h] | half-life at 0.86 mM [2] [h] | EC50 (HIV-1(IIIB)) [nM] | EC50 (HIV-2(ROD) [3]; [6]) [nM] | antiviral activity in CEM/TK− cell cultures (in words) (HIV-2(ROD) [4]) | EC50 (HIV-2(ROD) [4]; [7]) [nM] | CC50 [5] [nM] | EC50 (HIV-2(ROD) [3]) [nM] | EC50 (HIV-2(ROD) [4]; Human immunodeficiency virus 2, CEM-TK(-)) [nM]
CCCCCCCCC(=O)Oc1ccc(COP(=O)(OCc2ccc(OC(=O)CCCCCCCC)cc2)OP(=O)(O)OP(=O)(O)OCC2C=CC(n3cc(C)c(=O)[nH]c3=O)O2)cc1 (stereo not drawn) [5 a, reference compound] | 52 | 1.6 | 310 ± 10 | 620 ± 300 | active | 2260 ± 1030 | 52000 ± 1000 |  | 
CCCCCCCCCCCCCCCCCC(=O)Oc1ccc(COP(=O)(OCc2ccc(OC(=O)CCCC)cc2)OP(=O)(O)OP(=O)(O)OCC2C=CC(n3cc(C)c(=O)[nH]c3=O)O2)cc1 (stereo not drawn) [5 b, reference compound] | 50 | 3.3 | 120 ± 50 | 100 ± 30 | active | 540 ± 410 | 33000 ± 7000 |  | 
CCCCCCCCCCCCCCCCCCOP(=O)(OCc1ccc(OC(C)=O)cc1)OP(=O)(O)OP(=O)(O)OCC1C=CC(n2cc(C)c(=O)[nH]c2=O)O1 (stereo not drawn) [6 az] | 196 | 0.4 | 220 ± 50 | 500 ± 140 |  | 390 ± 300 | 17000 ± 5000 |  | 
CCCCCCCCCCCCCCCCCCOP(=O)(OCc1ccc(OC(=O)CC)cc1)OP(=O)(O)OP(=O)(O)OCC1C=CC(n2cc(C)c(=O)[nH]c2=O)O1 (stereo not drawn) [6 bz] | 206 | 1.6 | 190 ± 90 |  |  |  | 11000 ± 4000 | 250 | 350 ± 250
CCCCOP(=O)(OCc1ccc(OC(=O)CCCC)cc1)OP(=O)(O)OP(=O)(O)OCC1C=CC(n2cc(C)c(=O)[nH]c2=O)O1 (stereo not drawn) [6 cw] | 94 | 0.7 | 500 ± 210 | 670 ± 880 | marked loss of activity | 9740 ± 3440 | 64000 ± 11000 |  | 
